Reference: publication PMC6152318 (Molecules : A Journal of Synthetic Chemistry and Natural …, 2017)

How the values were obtained:
[1] = molecular target: Human serum albumin (HSA) IIA binding site (Homo sapiens, UniProt P02768); test: Flavonoid fluorescence (excitation 450 nm) on HSA pre-saturated with warfarin (simultaneous binding / displacement)
Protocol: HSA was freshly dissolved in Dulbecco’s phosphate-buffered saline pH 7.4 (137 mM sodium chloride, 2.7 mM potassium chloride, 8.1 mM disodium hydrogen phosphate, 1.47 mM potassium dihydrogen phosphate) immediately before measurements. […]. In all experiments, the final co-solvent concentration was held below 5%. This was done to prevent conformational changes of HSA due to changes in dielectric constant of the solvent.
Steady-state fluorescence was recorded using a thermostated Safas Xenius fluorometer (Safas Monaco, Monaco) with an integrated stirrer. All studies were performed at 25 ± 1 °C using 10 nm excitation and emission slit widths. […] Higher concentrations of HSA and ligands were not used due to poor solubility of ligands and high influence of ligand absorption. Measurements were performed in duplicate.

[2] = molecular target: T1, Human serum albumin (HSA) (Homo sapiens, UniProt P02768); test: Binding constants by quenching of HSA tryptophan fluorescence
T1 construct: Fatty acid free HSA and warfarin sodium were purchased from Sigma-Aldrich; purchased Sigma-Aldrich (St. Louis, MO, USA)
Protocol: In all experiments, the final co-solvent concentration was held below 5%. This was done to prevent conformational changes of HSA due to changes in dielectric constant of the solvent.
Steady-state fluorescence was recorded using a thermostated Safas Xenius fluorometer (Safas Monaco, Monaco) with an integrated stirrer. All studies were performed at 25 ± 1 °C using 10 nm excitation and emission slit widths. […] Measurements were performed in duplicate.
A stock solution of a single ligand was gradually added via syringe to a 2 mL of a 6 μM HSA solution placed in a quartz cell. Measurements were conducted at the excitation wavelength of 295 nm and emission was recorded in the 310–400 nm range enabling calculations of corresponding binding constants. […] Binding constants were determined according to Dufour and Dangles. A Scatchard analysis was performed assuming n identical binding sites on HSA. Values for binding constant (K), molar fluorescence intensity of the complex (f), and the stoichiometric coefficient (n) were estimated by fitting the F vs. Lt curves against Equations (1) and (2) using a least-square regression program Scientist (MicroMath, Salt Lake City, UT, USA), where F is fluorescence intensity, [L] the free ligand concentration, [Lt] the total ligand concentration, and c the total albumin concentration. […] In all cases, the inner filter effect was taken into account by using absorption of free ligands at excitation and emission wavelengths (εex and εem, respectively) (Equation (3)), where Fcorr is the fluorescence corrected for the inner filter effect, F0 is the measured fluorescence, ε is the sum of εex and εem, l = 0.65 is the optical path and c is the flavonoid concentration. (1) Fcorr=fcnK[L]/1+K[L] (2) [Lt]=[L](1+ncK/1+K[L]) (3) F0=Fcorr×10^−εlc

[3] = Flavonoid fluorescence in buffer solution without HSA
[4] = HSA 0-92% saturated with warfarin

Chain of Human serum albumin (HSA) IIA binding site (P02768 25-609): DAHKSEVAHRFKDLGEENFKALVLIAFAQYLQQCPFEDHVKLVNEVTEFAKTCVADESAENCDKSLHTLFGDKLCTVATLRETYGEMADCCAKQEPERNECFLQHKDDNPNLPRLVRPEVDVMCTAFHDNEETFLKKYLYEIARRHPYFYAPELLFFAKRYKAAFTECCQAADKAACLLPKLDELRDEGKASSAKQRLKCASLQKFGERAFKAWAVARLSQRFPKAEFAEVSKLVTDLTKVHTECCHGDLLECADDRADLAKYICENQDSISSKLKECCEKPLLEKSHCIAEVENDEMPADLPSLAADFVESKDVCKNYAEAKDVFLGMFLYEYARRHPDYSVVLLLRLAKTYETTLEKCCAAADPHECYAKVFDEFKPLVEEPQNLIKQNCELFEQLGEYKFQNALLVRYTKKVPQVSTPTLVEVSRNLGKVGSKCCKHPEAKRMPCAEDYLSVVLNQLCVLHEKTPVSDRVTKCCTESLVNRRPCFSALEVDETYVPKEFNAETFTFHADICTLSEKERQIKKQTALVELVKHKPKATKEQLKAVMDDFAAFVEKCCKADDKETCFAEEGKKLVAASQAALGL
T1 sequence (P02768 25-609): as above

O=c1cc(-c2ccc(O)c(O)c2)oc2cc(O)cc(O)c12 [Luteolin]
Effect of warfarin on flavonoid Fmax (maximum fluorescence) [1, 4]: no noticeable change
Effect of warfarin on flavonoid cmax (concentration needed to achieve Fmax) [1, 4]: no noticeable change
Absolute fluorescence intensity ([1]; flavonoid 2,00 uM, 0% occupied HSA): 3,5310
Absolute fluorescence intensity ([1]; flavonoid 2,00 uM, 22% occupied HSA): 3,0516
Absolute fluorescence intensity ([1]; flavonoid 2,00 uM, 38% occupied HSA): 3,2663
Absolute fluorescence intensity ([1]; flavonoid 2,00 uM, 63% occupied HSA): 2,9688
Absolute fluorescence intensity ([1]; flavonoid 2,00 uM, 92% occupied HSA): 3,0838
Absolute fluorescence intensity ([1]; flavonoid 4,00 uM, 0% occupied HSA): 5,6541
Absolute fluorescence intensity ([1]; flavonoid 4,00 uM, 22% occupied HSA): 5,0287
Absolute fluorescence intensity ([1]; flavonoid 4,00 uM, 38% occupied HSA): 5,0961
Absolute fluorescence intensity ([1]; flavonoid 4,00 uM, 63% occupied HSA): 4,7527
Absolute fluorescence intensity ([1]; flavonoid 4,00 uM, 92% occupied HSA): 4,7445
Absolute fluorescence intensity ([1]; flavonoid 6,00 uM, 0% occupied HSA): 7,6599
Absolute fluorescence intensity ([1]; flavonoid 6,00 uM, 22% occupied HSA): 6,8528
Absolute fluorescence intensity ([1]; flavonoid 6,00 uM, 38% occupied HSA): 6,8106
Absolute fluorescence intensity ([1]; flavonoid 6,00 uM, 63% occupied HSA): 6,3873
Absolute fluorescence intensity ([1]; flavonoid 6,00 uM, 92% occupied HSA): 6,5159
Absolute fluorescence intensity ([1]; flavonoid 7,99 uM, 0% occupied HSA): 9,4059
Absolute fluorescence intensity ([1]; flavonoid 7,99 uM, 22% occupied HSA): 8,8217
Absolute fluorescence intensity ([1]; flavonoid 7,99 uM, 38% occupied HSA): 8,5002
Absolute fluorescence intensity ([1]; flavonoid 7,99 uM, 63% occupied HSA): 7,8443
Absolute fluorescence intensity ([1]; flavonoid 7,99 uM, 92% occupied HSA): 8,1746
Absolute fluorescence intensity ([1]; flavonoid 11,98 uM, 0% occupied HSA): 11,5397
Absolute fluorescence intensity ([1]; flavonoid 11,98 uM, 22% occupied HSA): 11,3861
Absolute fluorescence intensity ([1]; flavonoid 11,98 uM, 38% occupied HSA): 11,3711
Absolute fluorescence intensity ([1]; flavonoid 11,98 uM, 63% occupied HSA): 10,9648
Absolute fluorescence intensity ([1]; flavonoid 11,98 uM, 92% occupied HSA): 10,4774
Absolute fluorescence intensity ([1]; flavonoid 15,97 uM, 0% occupied HSA): 14,0865
Absolute fluorescence intensity ([1]; flavonoid 15,97 uM, 22% occupied HSA): 14,1260
Absolute fluorescence intensity ([1]; flavonoid 15,97 uM, 38% occupied HSA): 13,9507
Absolute fluorescence intensity ([1]; flavonoid 15,97 uM, 63% occupied HSA): 13,0693
Absolute fluorescence intensity ([1]; flavonoid 15,97 uM, 92% occupied HSA): 12,9194
Absolute fluorescence intensity ([1]; flavonoid 23,93 uM, 0% occupied HSA): 17,9442
Absolute fluorescence intensity ([1]; flavonoid 23,93 uM, 22% occupied HSA): 17,8085
Absolute fluorescence intensity ([1]; flavonoid 23,93 uM, 38% occupied HSA): 17,8530
Absolute fluorescence intensity ([1]; flavonoid 23,93 uM, 63% occupied HSA): 17,0150
Absolute fluorescence intensity ([1]; flavonoid 23,93 uM, 92% occupied HSA): 16,3518
Absolute fluorescence intensity ([1]; flavonoid 31,87 uM, 0% occupied HSA): 20,8667
Absolute fluorescence intensity ([1]; flavonoid 31,87 uM, 22% occupied HSA): 20,4964
Absolute fluorescence intensity ([1]; flavonoid 31,87 uM, 38% occupied HSA): 20,5131
Absolute fluorescence intensity ([1]; flavonoid 31,87 uM, 63% occupied HSA): 19,6701
Absolute fluorescence intensity ([1]; flavonoid 31,87 uM, 92% occupied HSA): 19,1278
Absolute fluorescence intensity ([1]; flavonoid 39,80 uM, 0% occupied HSA): 22,9301
Absolute fluorescence intensity ([1]; flavonoid 39,80 uM, 22% occupied HSA): 22,5924
Absolute fluorescence intensity ([1]; flavonoid 39,80 uM, 38% occupied HSA): 22,2082
Absolute fluorescence intensity ([1]; flavonoid 39,80 uM, 63% occupied HSA): 21,6524
Absolute fluorescence intensity ([1]; flavonoid 39,80 uM, 92% occupied HSA): 20,8642
Absolute fluorescence intensity ([1]; flavonoid 47,71 uM, 0% occupied HSA): 24,5206
Absolute fluorescence intensity ([1]; flavonoid 47,71 uM, 22% occupied HSA): 23,8063
Absolute fluorescence intensity ([1]; flavonoid 47,71 uM, 38% occupied HSA): 23,5737
Absolute fluorescence intensity ([1]; flavonoid 47,71 uM, 63% occupied HSA): 23,1678
Absolute fluorescence intensity ([1]; flavonoid 47,71 uM, 92% occupied HSA): 22,5713
Absolute fluorescence intensity ([1]; flavonoid 63,49 uM, 0% occupied HSA): 26,4505
Absolute fluorescence intensity ([1]; flavonoid 63,49 uM, 22% occupied HSA): 25,9034
Absolute fluorescence intensity ([1]; flavonoid 63,49 uM, 38% occupied HSA): 25,4318
Absolute fluorescence intensity ([1]; flavonoid 63,49 uM, 63% occupied HSA): 24,8572
Absolute fluorescence intensity ([1]; flavonoid 63,49 uM, 92% occupied HSA): 24,6423
Absolute fluorescence intensity ([1]; flavonoid 79,21 uM, 0% occupied HSA): 26,9488
Absolute fluorescence intensity ([1]; flavonoid 79,21 uM, 22% occupied HSA): 26,5002
Absolute fluorescence intensity ([1]; flavonoid 79,21 uM, 38% occupied HSA): 26,5136
Absolute fluorescence intensity ([1]; flavonoid 79,21 uM, 63% occupied HSA): 25,8191
Absolute fluorescence intensity ([1]; flavonoid 79,21 uM, 92% occupied HSA): 25,3909
Absolute fluorescence intensity ([1]; flavonoid 98,77 uM, 0% occupied HSA): 27,2939
Absolute fluorescence intensity ([1]; flavonoid 98,77 uM, 22% occupied HSA): 27,2804
Absolute fluorescence intensity ([1]; flavonoid 98,77 uM, 38% occupied HSA): 26,9116
Absolute fluorescence intensity ([1]; flavonoid 98,77 uM, 63% occupied HSA): 26,1311
Absolute fluorescence intensity ([1]; flavonoid 98,77 uM, 92% occupied HSA): 26,2198
Absolute fluorescence intensity ([1]; flavonoid 118,23 uM, 0% occupied HSA): 27,1078
Absolute fluorescence intensity ([1]; flavonoid 118,23 uM, 22% occupied HSA): 27,1338
Absolute fluorescence intensity ([1]; flavonoid 118,23 uM, 38% occupied HSA): 26,9198
Absolute fluorescence intensity ([1]; flavonoid 118,23 uM, 63% occupied HSA): 26,3501
Absolute fluorescence intensity ([1]; flavonoid 118,23 uM, 92% occupied HSA): 26,3929
Absolute fluorescence intensity ([1]; flavonoid 137,59 uM, 0% occupied HSA): 26,3217
Absolute fluorescence intensity ([1]; flavonoid 137,59 uM, 22% occupied HSA): 26,7053
Absolute fluorescence intensity ([1]; flavonoid 137,59 uM, 38% occupied HSA): 26,6416
Absolute fluorescence intensity ([1]; flavonoid 137,59 uM, 63% occupied HSA): 26,1054
Absolute fluorescence intensity ([1]; flavonoid 137,59 uM, 92% occupied HSA): 26,3918
Absolute fluorescence intensity ([1]; flavonoid 156,86 uM, 0% occupied HSA): 25,8093
Absolute fluorescence intensity ([1]; flavonoid 156,86 uM, 22% occupied HSA): 26,0626
Absolute fluorescence intensity ([1]; flavonoid 156,86 uM, 38% occupied HSA): 26,1509
Absolute fluorescence intensity ([1]; flavonoid 156,86 uM, 63% occupied HSA): 25,5239
Absolute fluorescence intensity ([1]; flavonoid 156,86 uM, 92% occupied HSA): 25,7773
Kd [2]: 8.2 µM
Absolute fluorescence intensity ([3]; flavonoid 2,00 uM): 0,5984
Absolute fluorescence intensity ([3]; flavonoid 4,00 uM): 0,7341
Absolute fluorescence intensity ([3]; flavonoid 7,99 uM): 0,8094
Absolute fluorescence intensity ([3]; flavonoid 15,97 uM): 0,8481
Absolute fluorescence intensity ([3]; flavonoid 31,87 uM): 1,0538
Absolute fluorescence intensity ([3]; flavonoid 47,71 uM): 1,3400
Absolute fluorescence intensity ([3]; flavonoid 63,49 uM): 1,5045
Absolute fluorescence intensity ([3]; flavonoid 79,21 uM): 1,7483
Absolute fluorescence intensity ([3]; flavonoid 118,23 uM): 2,2774
Absolute fluorescence intensity ([3]; flavonoid 156,86 uM): 2,8851
